Experimental data: PMC7142633, “Impact of B-Ring Substitution and Acylation with Hydroxy Cinnamic Acids on the Inhibition of Porcine α-Amylase by Anthocyanin-3-Glycosides” (Foods, 2020)
Like-named read-outs stand apart in the source and are kept apart here. Marks after values point to notes of the source that are not given here.

Key:
[1] = molecular target: T1, α-amylase from porcine pancreas (Sus scrofa, UniProt P00690); test: α-amylase enzyme activity assay, GalG2CNP conversion, UV/Vis detection of CNP at 405 nm; assay type: biochemical; conditions: for IC50: read-out: IC50 (Cheng−Prussoff, Equation (9)); for Kmapp / vmaxapp: Michaelis Menten fit
T1 construct: A saline suspension of α-amylase from porcine pancreas; purchased Sigma Aldrich (Steinheim, Germany) Lot #SLBN9170V (catalogue number not given); host or cells: porcine pancreas (tissue-derived)
T1 sequence (P00690 16-511): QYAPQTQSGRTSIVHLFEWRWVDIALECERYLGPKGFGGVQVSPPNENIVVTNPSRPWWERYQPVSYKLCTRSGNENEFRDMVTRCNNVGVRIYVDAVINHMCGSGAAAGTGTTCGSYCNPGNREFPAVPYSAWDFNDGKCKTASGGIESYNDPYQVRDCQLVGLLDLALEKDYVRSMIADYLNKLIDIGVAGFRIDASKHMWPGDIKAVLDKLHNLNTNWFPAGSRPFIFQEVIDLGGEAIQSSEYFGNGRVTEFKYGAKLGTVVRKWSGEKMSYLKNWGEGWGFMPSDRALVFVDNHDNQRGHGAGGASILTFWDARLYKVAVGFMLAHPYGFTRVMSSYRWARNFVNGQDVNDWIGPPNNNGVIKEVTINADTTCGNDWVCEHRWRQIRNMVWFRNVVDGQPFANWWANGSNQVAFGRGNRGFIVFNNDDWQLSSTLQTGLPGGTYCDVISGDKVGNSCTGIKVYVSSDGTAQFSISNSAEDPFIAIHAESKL
Procedure: The enzyme activity assay, […], was established by Homoki and co-workers and already used by the authors to evaluate the inhibitory strength of different phenolic structures. To enable the evaluation of the result obtained in the present study compared to the non-anthocyanin phenolics investigated previously, the assay conditions were identical. In short, to 12 different GalG2CNP concentrations ([S] = 0−2000 µM) in MES^+ buffer, inhibitor [I] and 50 µL enzyme solution (c = 1.51 units/~100 pM, on the basis of supplier information) were mixed in a microtiter plate (Greiner BioOne, Frickenhausen, Germany; transparent, F-bottom). For blanks, the enzyme solution was substituted with MES^+ buffer. The final volume per well was 250 µL. To quantify the reaction product, a linear calibration with eight different CNP concentrations in the range of 0−35 µM was performed for each plate. Dilutions of the anthocyanin stock solutions (0.1% HCl) were equilibrated at pH 6.1 for one hour. Final inhibitor concentrations were limited due to its strong absorption at 405 nm to 12.5, 25, and 50 µM. For each anthocyanin structure, the assay was conducted on two to three different days with freshly prepared stocks of substrate, enzyme, and inhibitor.
In addition to the Michaelis Menten constant (Km) and the maximal conversion rate (vmax) values (Table S1), inhibition constants (Kic, Kiu) were calculated by fitting the data by two approaches: (i) According to the mixed inhibition equation (Equation (4)) or competitive inhibition equation (Equation (5)), applying an optimal global fit containing data from all inhibitor concentrations including the control ([I] = 0 µM); and (ii) by an independent fit according to the Michaelis Menten equation (Equation (6)), providing the apparent values Km^app and Vmax^app (Table S2) for each inhibitor concentration, which were then used to calculate the inhibition constants (Equations (7) and (8)). (4) v0= vmax/Km/[S] · (1+[I]/Kic)+(1+[I]/Kiu), (5) v0=vmax/Km/[S] · ( 1+[I]/Kic)+1, (6) v0=vmax · [S]/Km+[S], (7) Kic=vmax^app/Km^app · [I]/vmax/Km−vmax^app/Km^app, (8) Kiu=vmax^app · [I]/vmax− vmax^app.
The IC50 values of the different anthocyanins were derived from the inhibition constants for different substrate concentrations by the Cheng−Prusoff equation (Equation (9)). (9) IC50=(Km+[S])/Km/Kic+[S]/Kiu.
• KM: Michaelis Menten constant (µM) • vmax: Maximal conversion rate of the uninhibited reaction (µM/min) • v0: Observed conversion rate at given substrate and inhibitor concentration (µM/min) • [S]: Substrate concentration • [I]: Inhibitor concentration • Kic: Inhibitor constant, reflecting the competitive inhibition in the equation (µM) • Kiu: Inhibitor constant, reflecting the uncompetitive inhibition in the equation (µM) • vmax^app: Calculated maximal conversion rate, when the Michaelis Menten equation is used on an inhibited curve (µM/min) • Km^app: Calculated Michaelis Menten constant, when the Michaelis Menten equation is used on an inhibited curve (µM) • IC50: Half maximal inhibitory concentration (inhibitor concentration needed to achieve 50% inhibition; it is dependent on the substrate concentration) (µM)
For data analyses and calculations, Origin 2018b (OriginLab, software extension Enzyme Kinetics) was used. The Levenberg−Marquardt algorithm procedure was chosen for iteration. All assays were performed in two independent replicates at different dates. Values are expressed in arithmetic means ± average deviation (AD). The statistical significance and differences between groups were analyzed by one-way analysis of variance (ANOVA), followed by Tukey’s test. Differences were considered significant when p < 0.05. Data were processed using Microsoft Excel® (2010).

[2] = molecular target: T1, α-amylase from porcine pancreas; test: Isothermal titration calorimetry, single injection, GalG2CNP conversion; assay type: biochemical; conditions: 100 µM inhibitor, 0.95 mM substrate, 37 °C
Procedure: To evaluate the inhibitory strength of 100 µM anthocyanin-3-glucosides and black carrot anthocyanins, GalG2CNP conversion to CNP was monitored by the released heat. According to the previous study, ITC measurements were carried out in a single injection experiment set-up on a MICROCALTM PEAQ-ITC calorimeter (S/N MAL1188053, Malvern Panalytical Almelo, Netherlands). Following an equilibration time of 10 min, 1 µL α-amylase (1 µM in 50 mM MES^+ buffer) was added to 0.95 mM of the substrate with or without 100 µM of the phenolic inhibitor in the cell (Vcell = 0.207 mL). The temperature was maintained at 37 °C and the sample was stirred at 750 rpm throughout. The feedback/gain mode was set to high. The resulting heat profile was transformed and the conversion rate was plotted against the substrate concentration [S] by an origin routine template provided by Malvern® for Origin version 7.

SMILES: COc1cc(-c2[o+]c3cc(O)cc(O)c3cc2O[C@@H]2O[C@H](CO)[C@@H](O)[C@H](O)[C@H]2O)ccc1O [Peo-glc, peonidin-3-glucoside]
- IC50 ([1]; (i) Kic and Kiu by global fit, [S] 10 µM): 112 ± 40 µM
- IC50 ([1]; (i) Kic and Kiu by global fit, [S] 100 µM): 134 ± 46 µM
- IC50 ([1]; (i) Kic and Kiu by global fit, [S] 10^3 µM): 209 ± 65 µM
- IC50 ([1]; (i) Kic and Kiu by global fit, [S] 10^6 µM): 258 ± 78 µM
- Kic/Kiu ([1]; (i) global fit, Equation (4)): 0.42 ± 0.23 ^a
- Ki ([1]; (i) global fit, mixed inhibition Equation (4), read-out: Kic): 109 ± 39 µM
- Ki ([1]; (i) global fit, mixed inhibition Equation (4), read-out: Kiu): 258 ± 78 µM
- IC50 ([1]; (ii) Kic and Kiu by independent fit, [S] 10 µM): 121 ± 42 µM
- IC50 ([1]; (ii) Kic and Kiu by independent fit, [S] 100 µM): 142 ± 49 µM
- IC50 ([1]; (ii) Kic and Kiu by independent fit, [S] 10^3 µM): 212 ± 69 µM
- IC50 ([1]; (ii) Kic and Kiu by independent fit, [S] 10^6 µM): 254 ± 82 µM
- Ki ([1]; (ii) independent Michaelis Menten fit (Equation (6)), calculation by Equation (7), read-out: Kic): 118 ± 42 µM
- Ki ([1]; (ii) independent Michaelis Menten fit (Equation (6)), calculation by Equation (8), read-out: Kiu): 254 ± 82 µM
- Kic/Kiu ([1]; (ii) independent fit, Equations (7) and (8)): 0.43 ± 0.04 **^a
- Kmapp ([1]; inhibitor c 25 µM): 242 ± 8 µM
- vmaxapp ([1]; inhibitor c 25 µM): 0,74 ± 0,14 µM/min
- Kmapp ([1]; inhibitor c 50 µM): 256 ± 7 µM
- vmaxapp ([1]; inhibitor c 50 µM): 0,65 ± 0,05 µM/min
- Kmapp ([1]; inhibitor c 12,5 µM): 211 ± 15 µM
- vmaxapp ([1]; inhibitor c 12,5 µM): 0,77 ± 0,12 µM/min
- Ki ([1]; from apparent values, inhibitor c 25 µM, read-out: Kic): 107 ± 15 µM
- Ki ([1]; from apparent values, inhibitor c 25 µM, read-out: Kiu): 250 µM
- Ki ([1]; from apparent values, inhibitor c 50 µM, read-out: Kic): 112 ± 45 µM
- Ki ([1]; from apparent values, inhibitor c 50 µM, read-out: Kiu): 262 ± 92 µM
- Ki ([1]; from apparent values, inhibitor c 12,5 µM, read-out: Kic): 180 µM
- Ki ([1]; from apparent values, inhibitor c 12,5 µM, read-out: Kiu): 360 µM
- Ki ([1]; mean over inhibitor c 12,5, 25, 50 µM (Supplementary 2), read-out: Kic mean ± SD): 133 ± 40 µM
- Ki ([1]; mean over inhibitor c 12,5, 25, 50 µM (Supplementary 2), read-out: Kiu mean ± SD): 290 ± 61 µM
- inhibitory strength by ITC (thermogram, Michaelis Menten plot) [2]: Mlv-3-glc > Cyd-3-glc > Dpd-3-glc~Peo-3-glc
